Paper PMC8026324, “In Vitro Antiplasmodial, Heme Polymerization, and Cytotoxicity of Hydroxyxanthone Derivatives” (Journal of Tropical Medicine, 2021)
Like-named read-outs stand apart in the source and are kept apart here.

Tests used:
[1] = test system: formation of β-hematin (heme polymerization); assay: In vitro heme polymerization inhibitory activity (HPIA) assay; format: biochemical
Method: The heme polymerization inhibitory activity (HPIA) was conducted according to Basilico et al.'s modified method. The 100 μL of 1 mM hematin in 0.2 M NaOH was added into a microtube. […] Distilled water was used as a negative control. The 50 μL solution of glacial acetic acid (pH 2.6) was added into the microtube to initiate the polymerization reaction and incubated at a temperature of 37°C for 24 hours. Microtubes were centrifuged at 8000 rpm for 10 minutes and the supernatant was discarded and then washed three times using the 200 μL dimethyl sulfoxide (DMSO).Then, the deposition of the hematin crystal was dissolved with 200 μL of 0.1 M NaOH and 100 μL of solution was added into the 96-well microplate.
Absorbance was read using ELISA reader at λ 405 nm. A standard curve was made to illustrate the relationship between the concentration of hematin and its absorbance. The various concentrations of hematin (250; 125; 62.5; 31.25; 15.6; 7.8; and […]) were used to make the standard curve. The heme polymerization inhibition was expressed as IC50, which is the concentration of testing compounds that can inhibit 50% of the formation of β-hematin. The IC50 value was calculated by probit analysis using SPSS software (IBM Corp., Chicago).

[2] = test system: formation of β-hematin (heme polymerization); conditions: read-out: IC50 of chloroquine for heme polymerization inhibition, reference value; threshold reference value; cited from earlier work
[3] = test system: Plasmodium falciparum 3D-7 (chloroquine-sensitive strain); assay: In vitro antiplasmodial activity assay, microscopic method, strain 3D-7; format: cell-based; conditions: Plasmodium falciparum
Method: (§1) The test of antiplasmodial activity began with the culture of P. falciparum 3D-7 and FCR-3 using the modified Trager and Jensen method. The plasmodium was cultured in human O red blood cells diluted to 3% haematocrit in RPMI 1640 medium complemented with 10% human O serum. The medium was made by adding 10.43 g of powder RPMI 1640, 6 g HEPES, 2 g NaHCO3, 25 mg gentamycin, and sterile distilled water up to 1 L. The medium pH was adjusted so that it reached ±7.2. It was sterilized using a 0.22 μm filter and stored at 4°C. The complete plasmodium culture medium was made by adding human serum with a concentration of 10% in the medium. The plasmodium culture was incubated in candle jar in an incubator with a temperature of 37°C and was observed every 24 hours.
(§2) The plasmodium was synchronized to obtain the ring stage by adding 5% of D-sorbitol. The plasmodium was transferred from culture flask to a conical tube, and then it was centrifuged with a speed of 1000 rpm for 10 minutes. After the supernatant was disposed, the sterile 5% sorbitol was added and incubated for 10 minutes at a temperature of 37°C. The plasmodium suspension was centrifuged again; the supernatant was disposed and the plasmodium was washed by adding culture medium. Then, the plasmodium suspension was centrifuged again, and the supernatant was discarded, resulting in a plasmodium in ring stage only. The parasitemia was calculated from a thin blood preparation. The test used 1% parasitemia at 2% haematocrit in RPMI medium which complemented with 10% human O serum.
(§3) Each testing compound was dissolved in RPMI medium. The testing compound in various concentrations with volume of 100 μL was incorporated into the 96-well microplate, and then 100 μL of Plasmodium suspension was added. Each series of concentrations was replicated three times. The microplate was incubated at a temperature of 37°C for 72 hours. At the end of the incubation, a thin blood smear was made using 10% Giemsa stain and observed under a light microscope at 1000x magnification. The percentage of parasitemia (counting a minimum of 1,000 erythrocytes) was calculated from the preparation of thin blood and then used to calculate the percentage of plasmodium growth inhibition. […] Antiplasmodial activity is expressed as IC50, which is the concentration of a compound that is required for 50% inhibition of plasmodium growth. The IC50 value was calculated by probit analysis using SPSS software (IBM Corp., Chicago). The lower the IC50 value obtained, the greater the antiplasmodial activity.

[4] = test system: Plasmodium falciparum FCR-3 (chloroquine-resistant strain); assay: In vitro antiplasmodial activity assay, microscopic method, strain FCR-3; format: cell-based; conditions: Plasmodium falciparum
Method: as §1, §2, §3

[5] = read-out: Growth inhibition of P. falciparum Strain 3D-7
[6] = FCR3, read-out: Growth inhibition of P. falciparum Strain FCR-3

Question: For `CCN(CC)CCCC(C)Nc1ccnc2cc(Cl)ccc12` (stereo not drawn) [Chloroquine, reference compound], which IC50 ([1]; 24 hours, 37°C, glacial acetic acid pH 2.6) is on record?
Answer: 1480 µM

Question: And the “Inhibition of β-hematin” value ([1]; compound 0.601 mM)?
Answer: 29.080%

Question: What about the β-Hematin formed ([1]; compound 0.601 mM) of the same molecule?
Answer: 77.787 mM

Question: What about the “Inhibition of β-hematin” value ([1]; compound 1.221 mM) of the same molecule?
Answer: 47.315%

Question: What about the β-Hematin formed ([1]; compound 1.221 mM) of the same molecule?
Answer: 57.787 mM

Question: What about the “Inhibition of β-hematin” value ([1]; compound 2.423 mM) of the same molecule?
Answer: 56.379%

Question: And the β-Hematin formed ([1]; compound 2.423 mM)?
Answer: 47.845 mM

Question: What about the “Inhibition of β-hematin” value ([1]; compound 4.846 mM) of the same molecule?
Answer: 79.906%

Question: What about the β-Hematin formed ([1]; compound 4.846 mM) of the same molecule?
Answer: 22.040 mM

Question: What about the “Inhibition of β-hematin” value ([1]; compound 9.692 mM) of the same molecule?
Answer: 88.604%

Question: And the β-Hematin formed ([1]; compound 9.692 mM)?
Answer: 12.500 mM

Question: What about the IC50 [2] of the same molecule?
Answer: 37500 µM

Question: What about the IC50 ([3]; 72 h, read-out: IC50 on P. falciparum 3D-7) of the same molecule?
Answer: 0.01 ± 0.001 µM

Question: What about the inhibition at 0.008 µM [3, 5] of the same molecule?
Answer: 54.4 ± 12.4%

Question: And the inhibition at 0.016 µM [3, 5]?
Answer: 96.4 ± 1.13%

Question: And the inhibition at 0.023 µM [3, 5]?
Answer: 96.6 ± 1.33%

Question: And the inhibition at 0.029 µM [3, 5]?
Answer: 97.49 ± 0.517%

Question: And the inhibition at 0.037 µM [3, 5]?
Answer: 97.77 ± 0.69%

Question: What about the IC50 ([4]; FCR3, 72 h, read-out: IC50 on P. falciparum FCR-3) of the same molecule?
Answer: 0.11 ± 0.052 µM

Question: And the inhibition at 0.008 µM [4, 6]?
Answer: 18.7 ± 9.23%

Question: And the inhibition at 0.016 µM [4, 6]?
Answer: 78.6 ± 4.51%

Question: And the inhibition at 0.023 µM [4, 6]?
Answer: 79.9 ± 3.86%

Question: What about the inhibition at 0.029 µM [4, 6] of the same molecule?
Answer: 82.6 ± 2.94%

Question: What about the inhibition at 0.037 µM [4, 6] of the same molecule?
Answer: 84.2 ± 2.45%
